Results on one compound are retold here after patent publication US12016834B2, “Small molecule inhibitors of SLC25A1” (GEORGETOWN UNIVERSITY, priority 2017, dated 2024).

The assay concerns MP2 cells. As to the kind of experiment: Self-renewal and sphere forming in methylcellulose. In kind it is cell-based, human. The following applies: semi-solid media. On the procedure: Self-renewal assays. Tumor cells cultured as spheroids were dissociated and diluted in 2× sphere media containing 1% methyl cellulose, which was previously dissolved in cold DMEM/F12 media. Either 200, 500, or 1000 cells were then plated in each 96 well and were incubated in the presence or absence of drugs, as indicated. The spheres were allowed to form for a period of a week to ten days, at which point they were counted. Six biological replicates were used for quantification of the results.
Primary lung cancer cultures and GMSC. Surgical samples were minced and digested with dispase (50 U/ml) in DMEM media containing 5% serum for 1 hour. Pleural effusions were centrifuged, washed once in PBS, and then plated. All primary cultures were initially grown on 6-well plates pre-coated with 2% Geltrex (Life Technologies; Carlsbad, CA) and 1% Maxgel (Sigma Aldrich). Maxgel is a humanized matrix, native and non-denatured. The inclusion of Maxgel in the system enhanced the initial attachment of primary tumor cells, partially because Maxgel provides a more natural ECM conformational substrate. The day after plating, the media containing unattached cells was typically transferred to a fresh plate, in most of cases generating new attached cultures. […]

As to `O=C(O)c1ccccc1NS(=O)(=O)c1ccc(Cl)c([N+](=O)[O-])c1` [CTPI-2], the “self-renewal and sphere forming ability” value is “blunted self-renewal and sphere forming ability”.
